The text below walks through data of patent US9789082B2, “Somatostatin receptor subtype 4 (SSTR4) agonists” (Centrexion Therapeutics Corporation, priority 2013, dated 2017).

This test concerns the target human Somatostatin 4 receptor (SSTR4) (Homo sapiens (Human), UniProt P31391). The experiment in a line: cAMP assay with human somatostatin 4 receptor (hSSTR4 expressing H4 cells). Format: cell-based. To be noted: cAMP assay, read-out: SSTR4 agonism EC50. Here is the method: Camp Assay Method Description for cAMP Assay with Human Somatostatin 4 Receptor
The activation of the SSTR4 receptor (Gi coupled) causes an inhibition of intracellular cAMP after stimulation with Forskolin, which can be quantifiable by use of a suitable assay Kit and an adequate plate reader. This technique is used to characterize pharmacological effects of the SSTR4 receptor agonists by use of hSSTR4 expressing H4 cells.
Compounds are dissolved and diluted in DMSO. The final test solution contains 1% DMSO. […] Cells are centrifuged and suspended in assay buffer (incl. 1:100 diluted Alexa antibody).
For the assay 5 μl of a cell suspension (approximately 5000 cells/well)—incl. Alexa antibody (diluted 1:100) are added into a 384 well MTP microtitre plate excepting one row or column (depending on the plate layout), which is reserved for the standard curve. Then 2 μl of compound sample is added as concentration response curve (e.g. 1e-5 M to 6e-10 M), usually in triplicates. Each assay contains incubations with vehicle controls instead of compound as controls for non-inhibited cAMP generation (100% CTL; ‘high values’) and incubations with 1 μM Somatosatin as controls for full inhibition and background (0% CTL; […]). […] Then the plates are shaken briefly and incubated for 60 min at room temperature. After 60 min 10 μl of the detection mix is added into all wells followed by an additional incubation period of 1 h. The plates are read in a suitable plate reader.
From this ratio, cAMP concentrations are calculated from standard curve and the EC50 is estimated by least square curve fit program.
The EC50 values were obtained with the aid of the above described cAMP ASSAY.

human Somatostatin 4 receptor (SSTR4), sequence (P31391 whole entry): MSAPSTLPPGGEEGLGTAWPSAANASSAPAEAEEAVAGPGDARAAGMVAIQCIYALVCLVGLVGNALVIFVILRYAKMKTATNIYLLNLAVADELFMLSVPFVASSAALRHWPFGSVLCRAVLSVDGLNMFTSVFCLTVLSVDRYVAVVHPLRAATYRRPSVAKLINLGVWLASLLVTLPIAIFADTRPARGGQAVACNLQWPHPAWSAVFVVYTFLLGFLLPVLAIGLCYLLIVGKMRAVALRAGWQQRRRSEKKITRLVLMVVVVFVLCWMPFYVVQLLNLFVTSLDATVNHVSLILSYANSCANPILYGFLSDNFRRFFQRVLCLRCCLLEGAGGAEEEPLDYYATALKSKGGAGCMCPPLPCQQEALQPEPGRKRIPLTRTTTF

Regarding `CC(C)(NC(=O)[C@H]1[C@@H]2CNC[C@@H]21)c1ncnc2c(F)cccc12` [Example 154], the concentration giving a half-maximal response (EC50) worked out at 7.6 nM.
For `CC(C)(COc1noc2ccccc12)NC(=O)[C@H]1[C@@H]2CNC[C@@H]21` [Example 62], the concentration for a half-maximal effect (EC50) is 207 nM.
Turning to `Cc1cccnc1CCC(C)(C)NC(=O)[C@H]1[C@@H]2CNC[C@@H]21` [Example 30], the 50% effective concentration (EC50) is 202 nM.
Consider `CC(C)(NC(=O)[C@H]1[C@@H]2CNC[C@@H]21)c1nc(Br)c2ccccn12` [Example 123], for which the EC50 was found to be 1.5 nM.
Next, `Cc1cccn2c(C3(NC(=O)[C@H]4[C@@H]5CNC[C@@H]54)CCOCC3)ncc12` [Example 182]: 68.5 nM; `CC(C)(NC(=O)[C@H]1[C@@H]2CNC[C@@H]21)c1ccccc1` [Example 3]: 179 nM.
Next, `CC(C)(NC(=O)[C@H]1[C@@H]2CNC[C@@H]21)c1nn(CC(F)(F)F)c2ccccc12` [Example 96]: 9.2 nM; `Cn1nc(C(C)(C)NC(=O)[C@H]2[C@@H]3CNC[C@@H]32)c2cc(F)ccc21` [Example 73]: 11.9 nM.
Next, `CC(NC(=O)[C@H]1[C@@H]2CNC[C@@H]21)c1nn(C)c2c(Cl)cccc12` (single isomer, unassigned) [Example 115]: 21.3 nM; `CC(C)(NC(=O)[C@H]1[C@@H]2CNC[C@@H]21)c1ncc2cc(C(F)(F)F)ccn12` [Example 122]: 1340 nM; `CC(C)(NC(=O)[C@H]1[C@@H]2CNC[C@@H]21)c1ncc2ccc(F)cn12` [Example 136]: 6.4 nM.
In the case of `Cc1cccn2c(C(C)(C)NC(=O)[C@H]3[C@@H]4CNC[C@@H]43)ccc12` [Example 184], the half-maximal effective concentration (EC50) turned out to be 0.4 nM.
Consider `Cc1cccc2c(C(C)NC(=O)[C@H]3[C@@H]4CNC[C@@H]43)nn(C)c12` (single isomer, unassigned) [Example 118], for which the EC50 is 39.2 nM.
To `CC(C)(Cc1cccc2ccccc12)NC(=O)[C@H]1[C@@H]2CNC[C@@H]21` [Example 5] belongs 26.6 nM; to `CC(C)(NC(=O)[C@H]1[C@@H]2CNC[C@@H]21)C1CCOc2ccccc21` (single isomer, unassigned) [Example 180], 400 nM.
Take `Cc1ccccc1OCC(C)(C)NC(=O)[C@H]1[C@@H]2CN(C(C)C)C[C@@H]21` [Example 72]: the concentration for a half-maximal effect (EC50) was determined as 362 nM.
Next, `CC(C)(COc1ccccc1F)NC(=O)[C@H]1[C@@H]2CNC[C@@H]21` [Example 41]: 194 nM; `CC(C)(NC(=O)[C@H]1[C@@H]2CNC[C@@H]21)c1nc(C(F)(F)F)c2c(F)cccn12` [Example 127]: 31.9 nM; `CC(C)(NC(=O)[C@H]1[C@@H]2CNC[C@@H]21)c1ncc2cccc(F)n12` [Example 135]: 7.6 nM.
Turning to `Cc1nc(C(C)NC(=O)[C@H]2[C@@H]3CNC[C@@H]32)c2cccc(C)c2n1` (single isomer, unassigned) [Example 166], the EC50 was 1400 nM.
Next, `Cc1csc(C(C)(C)NC(=O)[C@H]2[C@@H]3CNC[C@@H]32)n1` [Example 27]: 285 nM.
As for `CC(C)(NC(=O)[C@H]1[C@@H]2CNC[C@@H]21)c1nn(C2CCOCC2)c2ccccc12` [Example 99], the concentration for a half-maximal effect (EC50) came to 102 nM.
To `CC(C)(COc1ccncc1C(F)(F)F)NC(=O)[C@H]1[C@@H]2CNC[C@@H]21` [Example 36] belongs 21.8 nM.
As for `CC(C)(CCc1ncccc1C(F)(F)F)NC(=O)[C@H]1[C@@H]2CNC[C@@H]21` [Example 29], the concentration giving a half-maximal response (EC50) is 60.4 nM.
Next, `CC(C)(COc1cncc2ccccc12)NC(=O)[C@H]1[C@@H]2CNC[C@@H]21` [Example 55]: 30.9 nM; `CC(C)(CCc1ccccc1)NC(=O)[C@H]1[C@@H]2CNC[C@@H]21` [Example 4]: 315 nM; `CC(C)(NC(=O)[C@H]1[C@@H]2CNC[C@@H]21)C1COc2ccccc21` (single isomer, unassigned) [Example 175]: 1000 nM.
As to `COc1ccn2c(C(C)(C)NC(=O)[C@H]3[C@@H]4CNC[C@@H]43)nc(C)c2c1` [Example 155], the EC50 worked out at 94.7 nM.
Turning to `Cc1nc(C(C)(C)NC(=O)[C@H]2[C@@H]3CNC[C@@H]32)c2cccc(F)c2n1` [Example 157], the EC50 was 36.9 nM.
To `Cc1cc(C)c(C(C)(C)NC(=O)[C@H]2[C@@H]3CNC[C@@H]32)cn1` [Example 177] belongs 9.1 nM; to `Cn1nc(C(C)(C)NC(=O)[C@H]2[C@@H]3CNC[C@@H]32)c2ncccc21` [Example 35], 376 nM; to `CC(C)(NC(=O)[C@H]1[C@@H]2CNC[C@@H]21)C1CCCCC1` [Example 7], 435 nM.
As to `CC(C)(NC(=O)[C@H]1[C@@H]2CNC[C@@H]21)c1ncc2ccc(C(F)(F)F)cn12` [Example 121], the half-maximal effective concentration (EC50) turned out to be 61.5 nM.
To `Cc1ccc(C(C)(C)NC(=O)[C@H]2[C@@H]3CNC[C@@H]32)c(C)n1` [Example 172] belongs 520 nM; to `CC(C)(NC(=O)[C@H]1[C@@H]2CNC[C@@H]21)c1nc(C#N)c2ccccn12` [Example 132], 72.3 nM.
For the compound `Cc1cc(C(F)(F)F)ccc1OCC(C)(C)NC(=O)[C@H]1[C@@H]2CNC[C@@H]21` [Example 19], the concentration giving a half-maximal response (EC50) turned out to be 141 nM.
To `CC(C)(NC(=O)[C@H]1[C@@H]2CNC[C@@H]21)c1c(Cl)nc2sccn12` [Example 81] belongs 143 nM; to `CC(C)(COc1ccnc2ccccc12)NC(=O)[C@H]1[C@@H]2CNC[C@@H]21` [Example 54], 66.6 nM.
With `Cc1nc(C(C)NC(=O)[C@H]2[C@@H]3CNC[C@@H]32)c2ccccc2n1` (single isomer, unassigned) [Example 164], the EC50 stood at 6660 nM.
Consider `Cc1nc(C(C)NC(=O)[C@H]2[C@@H]3CNC[C@@H]32)c2cccc(C)c2n1` (stereo partly drawn) [Example 162], for which the concentration giving a half-maximal response (EC50) is 128 nM.
Next, `Cc1ccccc1CC(C)(C)NC(=O)[C@H]1[C@@H]2CNC[C@@H]21` [Example 6]: 59.6 nM; `CC(C)(NC(=O)[C@H]1[C@@H]2CNC[C@@H]21)c1ccc2ccccc2n1` [Example 34]: 41.1 nM; `Cn1nc(C(C)(C)NC(=O)[C@H]2[C@@H]3CNC[C@@H]32)c2c1CCCC2` [Example 176]: 1.2 nM.
To `Cc1cc2c(C)nccc2c(C(C)(C)NC(=O)[C@H]2[C@@H]3CNC[C@@H]32)n1` [Example 144] belongs 47.7 nM; to `CC(C)(NC(=O)[C@H]1[C@@H]2CNC[C@@H]21)c1nn(CC2CC2)c2ccccc12` [Example 97], 12.4 nM; to `Cc1cccn2c(C(C)(NC(=O)[C@H]3[C@@H]4CNC[C@@H]43)C3CC3)ncc12` (stereo partly drawn) [Example 183], 9.9 nM.
To `CC(C)(NC(=O)[C@H]1[C@@H]2CNC[C@@H]21)c1ncc2c(OC(F)(F)F)cccn12` [Example 152] belongs 26.1 nM; to `CC(C)n1nc(C(C)(C)NC(=O)[C@H]2[C@@H]3CNC[C@@H]32)c2ccccc21` [Example 98], 19.9 nM; to `Cc1nc(C(C)NC(=O)[C@H]2[C@@H]3CNC[C@@H]32)c2cccc(C)c2n1` (single isomer, unassigned) [Example 165], 88.8 nM.
With `CC(C)(NC(=O)[C@H]1[C@@H]2CNC[C@@H]21)c1cc2ccccc2cn1` [Example 26], the EC50 amounted to 46.5 nM.
For `CC(C)(NC(=O)[C@H]1[C@@H]2CNC[C@@H]21)c1cnc2cccnn12` [Example 46], the EC50 was found to be 241 nM.
Next, `CC(C)(NC(=O)[C@H]1[C@@H]2CNC[C@@H]21)c1ncc2ccncn12` [Example 69]: 749 nM; `CC(C)(NC(=O)[C@H]1[C@@H]2CNC[C@@H]21)c1ccn2ccnc2c1` [Example 85]: 144 nM; `CC(C)(NC(=O)[C@H]1[C@@H]2CNC[C@@H]21)c1ncc2cnccn12` [Example 131]: 484 nM.
On to `CC(C)(NC(=O)[C@H]1[C@@H]2CNC[C@@H]21)c1nc(C2=CCOCC2)c2ccccn12` [Example 125], for which the concentration giving a half-maximal response (EC50) turned out to be 97.6 nM.
As to `Cc1nccnc1OCC(C)(C)NC(=O)[C@H]1[C@@H]2CNC[C@@H]21` [Example 37], the half-maximal effective concentration (EC50) was 162 nM.
As for `Cc1cccc2c(C(C)NC(=O)[C@H]3[C@@H]4CNC[C@@H]43)nn(C)c12` (stereo partly drawn) [Example 117], the concentration giving a half-maximal response (EC50) was determined as 6.1 nM.
Turning to `CC(NC(=O)[C@H]1[C@@H]2CNC[C@@H]21)c1nn(C)c2ccccc12` (single isomer, unassigned) [Example 112], the half-maximal effective concentration (EC50) stood at 119 nM.
Regarding `Cc1cncnc1OCC(C)(C)NC(=O)[C@H]1[C@@H]2CNC[C@@H]21` [Example 66], the EC50 was 142 nM.
As to `Cc1nc(C(C)NC(=O)[C@H]2[C@@H]3CNC[C@@H]32)c2ccccc2n1` (stereo partly drawn) [Example 161], the EC50 was determined as 764 nM.
